Laboratory results reported in patent US20250368959A1, “COMPOSITIONS AND METHODS FOR DIFFERENTIATING STEM CELLS INTO NK CELLS” (CRISPR THERAPEUTICS AG, priority 2022, published 2025).

Assays:
Type in all cases: cell-based, human
[1] = tested on: blood lineage markers, CD33; assay: Effect of WNT-C59 in NK-MED-006 medium on iNK induction; conditions: 2 μM in NK-MED-006, AP2.0, day 20 cultures
Experimental: The effect of including WNT-C59 (2 μM) in NK-MED-006 medium during iNK induction using the AP2.0 protocol was examined. […] The addition of WNT-C59 increased proportion of cells expressing non-NK lineage markers.

[2] = tested on: iNK cell induction from HSPC; assay: Design of Experiment (DoE) I and β-mercaptoethanol test, day 6 to day 20; conditions: for direction of effect in DoE I: differentiation and cell number at day 20
Experimental: A design of Experiment (DoE) study was performed to determine the concentrations of zinc sulfate, β-mercaptoethanol, human serum, and glucose that would provide the most differentiation and increased number of cells at differentiation day 20. These factors were selected based on known chemical/biological effects of them in affect general cell proliferation and differentiation. Potential positive/negative involvement of β-mercaptoethanol, zinc ion, human serum, and glucose in NK cell or lymphocyte cell proliferation, killer cell receptor function, and cytotoxicity have been previously reported. There were no known studies conducted on testing optimal range of these factors in NK cell induction from HSPC.
To determine the effects of β-mercaptoethanol on differentiation, CD45+ and CD56+ expression was measured in cells cultured in Stempro34 media, DMEM/F12 media with low zinc, low human serum, and no β-mercaptoethanol (bME), or DMEM/F12 media with low zinc, low human serum, and 50 μM β-mercaptoethanol.
A second DoE experiment (DoE II) was subsequently performed to further optimize the concentrations of zinc, β-mercaptoethanol, human serum albumin, and glucose.

CD56^+ cells = assay: CD45/CD56 expression on day 28 after iPSC-HSPC differentiation optimization
Experimental: For iPSC-HSPC differentiation optimization, CD45/CD56 expression on day 28 was measured (FIG. 10). The HSPC cells on day 6 were further differentiated to iNK in the StemPro-34-based differentiation media Table 12) in the presence of IL7, IL15, SCF. Flt3lFlt3l, (IL3 was added for days 6-14 only). […] However, it was not an optimal condition as the single cells production and expansion was lower than in conditions in the presence of Activin A molecule (data not shown). Due to low CD56^+ cells formation on day 28, the HSPC to iNK differentiation conditions was optimized.

CD45^+CD56^+ cells = assay: Effect of CHIR-99021 concentration in NK-MED-005 medium on iNK induction; conditions: 2.5, 3.5 or 4.5 μM in NK-MED-005c, AP2.0, day 20
Experimental: To determine the optimal concentration of CHIR-99021, different concentrations (2.5 μM, 3.5 μM or 4.5 μM) were added to the NK-MED-005c medium (Table 30) to test their effect on iNK induction. Differentiation proceeded according to Protocol 2 (AP2.0) as described in Example 11. Cells were collected and analyzed using flow cytometry to detect CD45^+CD56^+ cells at differentiation day 20.

CD45^+/CD56^+ cells = assay: Stage II base media comparison (Stempro34 vs DMEM/F12 and others), Day 21 single cells
Experimental: This Example investigates the use of various alternative base media that can be used for Stage II differentiation. […] The HSPC to iNK differentiation from day 6 further on was done in StemPro-34-based media (Table 12). […] In this Example, the […] until day 6 as described in Example 2 (i.e., steps 1-5). Each media was supplemented with 20 ng/mL IL7, 20 ng/mL IL15, 20 ng/mL SCF, 20 ng/mL Flt3lFlt3l and 5 ng/mL of IL-3 for days 6-14 and 20 ng/mL IL7, 20 ng/mL IL15, 20 ng/mL SCF, 20 ng/mL Flt3lFlt3l for days 14-21 of differentiation.
Day 21 single cells were profiled for CD45^+/CD56^+, CD56^+/NKG2D^+, CD56^+/CD94^+, and CD56^+/CD16^+ expression (FIG. 12). […] The DMEM/F12 2:1 basal media was chosen due to its price and higher availability for scale up production.

SMILES: Cc1cc(-c2ccc(CC(=O)Nc3ccc(-c4cccnc4)cc3)cc2)ccn1 [WNT-C59]
- proportion of cells expressing non-NK lineage markers [1]: increased
- proportion of iNK that expressed the myeloid progenitor marker CD33 [1]: altered

SMILES: O=S(=O)([O-])[O-].[Zn+2] [Zinc sulfate]
- direction of effect in DoE I [2]: positive effect

SMILES: Cc1cnc(-c2cnc(NCCNc3ccc(C#N)cn3)nc2-c2ccc(Cl)cc2Cl)[nH]1 [CHIR-99021, 6-[[2-[[4-(2,4-Dichlorophenyl)-5-(5-methyl-1H-imidazol-2-yl)-2-pyrimidinyl]amino]ethyl]amino]-3-pyridinecarbonitrile]
- single cells production and expansion (CD56^+ cells; CHIR-99021 alone versus conditions with Activin A, data not shown): lower
- CD56^+ percentage, rank among conditions (CD56^+ cells; day 28, StemPro-34-based media, condition #5): highest CD56^+ percentage
- amount giving the highest proportion of CD45^+CD56^+ cells (CD45^+CD56^+ cells): moderate amount

SMILES: OCCS [β-mercaptoethanol]
- CD45^+/CD56^+ cells (CD45^+/CD56^+ cells; StemPro34, bME 55 μM, 1 μM, 0 μM (samples #1, #2, #3), day 21): 60% to 90%
- effect on iNK differentiation (CD45^+/CD56^+ cells; StemPro-based media, day 6 to day 21): prevented iNK differentiation
- effect on iNK cell induction (CD45+, CD56+ expression) ([2]; 50 μM in DMEM/F12 with low zinc, low human serum): negative effect
- direction of effect in DoE I [2]: negative effect
